Laboratory results: patent publication US20260306440A1, “USE OF SMALL MOLECULES TO INCREASE HYPOXIA INDUCIBLE FACTOR (HIF) ACTIVITY” (BROWN UNIVERSITY, priority 2023, published 2026)

Key:
[1] = tested on: VEGF; assay: Luciferase reporter assay, VEGF-HRE::dLUC (HCT116 or SW480 stable cell lines); assay type: cell-based, human
Protocol: (§1) HCT116 or SW480 cells were transfected using lipofectamine 2000 (Invitrogen, USA) with pGL4.22-VEGF-HRE::dLUC or pGL4.22-PGK1-HRE::dLUC plasmids expressing the luciferase reporter with hypoxia response element (HRE) derived from the human PGK1 promoter or the human VEGF promoter (Walton Z. E. et al., Cell. 2018 Jun. 28; 174(1):72-87). Cells were cultured and selected in 2 μg/mL (for HCT116) or 4 μg/mL (for SW480) puromycin-containing DMEM medium (Cytiva HyClone) after 24 h of transfection. Individual clones were picked and expanded. Verification of the luciferase reporter-bearing cells were performed by measuring the bioluminescence in hypoxia upon addition of the substrate (luciferin) using the IVIS imaging system.
(§2) Luciferase-reporter expressing cells were seeded in 96-well black plates at a density of 2~4×10^4 cells/well. Treatment with compounds were performed on the next day for 6 h under normoxia or hypoxia. After substrate (luciferin) addition, plates were imaged for luminescence intensity in the IVIS imaging system.
(§3) Hypoxic conditions (0.5% O2) were achieved by culturing cells in a hypoxia chamber (HypOxygen H35 HypOxystation) which controls and maintains a stable level of oxygen, carbon dioxide, temperature and humidity.
(§4) Normoxia refers to a regular cell culture condition at 21% oxygen concentration.

[2] = tested on: VEGF; assay: Expression of VEGF protein in SW480 cells treated with compound (FIG. 4); assay type: cell-based; conditions: normoxia 6 h (FIG. 4)
Source text: as §4

[3] = tested on: PGK1; assay: Luciferase reporter assay, PGK1-HRE::dLUC (HCT116 or SW480 stable cell lines); assay type: cell-based, human; conditions: HCT116 and SW480, normoxia and hypoxia, 6 h (FIGS. 5-24)
Protocol: as §1, §2, §3, §4

[4] = tested on: erythropoietin (EPO) mRNA; assay: EPO mRNA expression in HCT116 cells by real-time PCR; assay type: cell-based; conditions: HCT116, normoxia or hypoxia, indicated durations (FIG. 31)
Protocol: Total RNA was extracted from cells using the RNeasy Mini Kit (Qiagen). cDNA was obtained by reverse transcription with random primers using the SuperScript II First-Strand Synthesis System (Invitrogen). Real-time PCR reactions were performed with SYBR Green Master Mix (Applied Biosystems) using the QuantStudio™ 6 Pro Real-Time PCR System.
as §3, §4
Cells were treated for indicated durations in normoxia or hypoxia. Extracted RNA was analyzed by real-time PCR. M: MG132 (5 μM). Statistic analysis: two-way anova+Dunnett's multiple comparisons test.

[5] = tested on: HIF-1α; assay: Expression of HIF-1α protein in cancer cell lines treated with compound (FIGS. 1-4, 29, 30, 32); assay type: cell-based
Source text: as §3, §4

[6] = hypoxia (0.5% O2), FIG. 2: SW480 cells, 6 h
[7] = normoxia (21% O2), FIGS. 1, 3, 4: SW480, RCC4 cells, 6 h

SMILES: O=C(O)c1ccc(N2C(=O)C(=Cc3ccc(-c4ccc([N+](=O)[O-])cc4)o3)C=C2c2ccccc2)cc1 [4E1Rcat]
- VEGF upregulation as measured by a luciferase assay, despite incubation with siRNA EIF4E ([1]; HCT116, hypoxia 6 h, two different eIF4E siRNAs for 48 hours (FIG. 26)): upregulated
- VEGF upregulation as measured by a luciferase assay, despite incubation with siRNA EIF4E ([1]; HCT116, normoxia 6 h, two different eIF4E siRNAs for 48 hours (FIG. 25)): upregulated
- expression of VEGF as measured in a luciferase assay ([1]; HCT116 and SW480, normoxia and hypoxia, 6 h (FIGS. 5-24)): increases
- VEGF upregulation as measured by a luciferase assay, despite incubation with siRNA EIF4E ([1]; SW480, hypoxia 6 h, two different eIF4E siRNAs for 48 hours (FIG. 28)): upregulated
- VEGF upregulation as measured by a luciferase assay, despite incubation with siRNA EIF4E ([1]; SW480, normoxia 6 h, two different eIF4E siRNAs for 48 hours (FIG. 27)): upregulated
- VEGF expression [2]: increase
- expression of PGK1 as measured in a luciferase assay [3]: increases
- erythropoietin (EPO) mRNA expression [4]: increases
- HIF-1α expression ([5]; HCT116, normoxia, 6, 8 or 10 hours (FIG. 29)): increases
- expression of HIF-1α ([5]; HT29 (colorectal cancer) cells, normoxia 6 h (FIG. 30)): increases
- expression of HIF-1α ([5]; PANC1 (pancreatic cancer) cells, normoxia 6 h (FIG. 30)): increases
- expression of HIF-1α [5, 6]: increase
- expression of HIF-1α [5, 7]: increase

SMILES: CCc1ccc(/C=C/C(=O)Nc2ccc(C(C)=O)cc2)o1 [Heclin]
- VEGF expression [2]: increase
- expression of HIF-1α [5, 6]: increase
- expression of HIF-1α [5, 7]: increase

SMILES: CCOC(=O)c1ccc(N2NC(=O)/C(=C/c3ccc([N+](=O)[O-])o3)C2=O)cc1 [PYR 41]
- VEGF expression [2]: increase
- HIF-1α expression ([5]; HCT116, hypoxia (FIG. 32)): increases
- HIF-1α expression ([5]; RCC4 renal cell carcinoma cells, normoxia (FIG. 32)): increases
- HIF-1α expression ([5]; SW480, hypoxia (FIG. 32)): increases
- HIF-1α expression ([5]; SW480, normoxia (FIG. 32)): increases
- expression of HIF-1α [5, 6]: increase
- expression of HIF-1α [5, 7]: increase

SMILES: CC1=NN(c2ccc(C(=O)O)cc2)C(=O)/C1=C/c1ccc(-c2cc(C)c(C)cc2[N+](=O)[O-])o1 [C 646]
- VEGF expression [2]: increase
- expression of HIF-1α [5, 6]: increase
- expression of HIF-1α [5, 7]: increase
